The results in this text go back to patent US20060049177A1, “Induction heating cooker” (LG Electronics Inc., priority 2004, published 2006).

Molecules are shown by their SMILES. Bounds are passed on as bounds.

Data set [1] can be described thus: cytotoxicity in mock-infected MT-4 cells (MTT). The settings on record: human, mock-infected MT-4 cells. The procedure: (§1) A rapid, sensitive and automated assay procedure was used for the in vitro evaluation of anti-HIV agents. An […] T4-cell line, MT-4, which was previously shown (Koyanagi et al., Int. J. Cancer, 36, 445-451, 1985) to be highly susceptible to and permissive for HIV infection, served as the target cell line. Inhibition of the HIV-induced cytopathic effect was used as the end point. The viability of both HIV- and mock-infected cells was assessed spectrophotometrically via the in situ reduction of 3-(4,5-dimethylthiazol-2-yl)-2,5-diphenyltetrazolium bromide (MTT). The 50% […], cytotoxic concentration (CC50 in μM) was defined as the concentration of compound that reduced the absorbance of the mock-infected control sample by 50%. The percent protection achieved by the compound in HIV-infected cells was calculated by the following formula: [formula]
(§2) whereby (ODT)HIV is the optical density measured with a given concentration of the test compound in HIV-infected cells; (ODC)HIV is the optical density measured for the control untreated HIV-infected cells; (ODC)MOCK is the optical density measured for the control untreated mock-infected cells; all optical density values were determined at 540 nm. The dose achieving 50% protection according to the above formula was defined as the 50% inhibitory concentration (IC50 in μM). The ratio of CC50 to IC50 was defined as the selectivity index (SI).

The test system of another data set is HIV-1. Put plainly: in vitro anti-HIV assay: inhibition of HIV-induced cytopathic effect in MT-4 cells (MTT). The data set is classed as cell-based. The settings on record: for IC50: Human immunodeficiency virus 1, MT4, HIV-infected MT-4 cells, dose achieving 50% protection against cytopathic effect, MTT, OD 540 nm, mean value, read-out: IC50; for SI: selectivity index = ratio of CC50 to IC50. The procedure: as §1, §2

On to `CNc1nc(Cc2c(Cl)cccc2Cl)nc(Nc2ccc(C#N)cc2)n1` [Compound 7, 4-[[4-[(2,6-dichlorophenyl)methyl]-6-(methyl-amino)-1,3,5-triazin-2-yl]amino]benzonitrile], for which the melting point was in the range of 229 to 230 °C. Further, the CC50 in data set [1] was greater than 100000 nM. In addition, in the data set on HIV-1, the IC50 was found to be 10 nM and the SI was greater than 14285.

The compound `NC(=O)c1ccc(Nc2nc(N)nc(Cc3c(Cl)ccc4[nH]ccc34)n2)cc1` [Compound 9, 4-[[4-amino-6-[(5-chloro-1H-indol-4-yl)methyl]-1,3,5-triazin-2-yl]amino]benzamide] gave a melting point of 204 to 205 °C. Moreover, in the data set with HIV-1, the IC50 was determined as 66 nM and the SI stood at 830.
